The results in this text go back to patent US8497298B2, “Use of benzo-fused heterocycle sulfamide derivatives for lowering lipids and lowering blood glucose levels” (Janssen Pharmaceutica NV, priority 2005, dated 2013).

In series [1] the test system is db/db mice. Nature of the series: Female db/db Mouse Assay, Study A: single dose part and dose response part (Example 14). Type of series: in vivo. The text has this: 0.5% Hydroxypropyl Methylcellulose (Methocel) used as vehicle/control.
Db/db mice are susceptible to Type 2 diabetes. […] All of the mice were quarantined for a period of one week before transfer to the animal procedure room. A drop of blood (about 2 microliters) was collected by tail puncture and glucose concentration was detected with a glucometer (OneTouch UltraSmart, Lifescan, Milpitas, Calif.). […] Animals were separated and single housed at least three days prior to the drug treatments to allow acclimation to the new surroundings.
In the second, dose response part of Study A, 48 mice were allocated into 4 treatment groups of 12 mice each.
The dosing volume was 5 mL/kg body weight (0.2 mL for 40 gram mice). The mice were fed ad lib throughout the study. A necropsy was completed 18 hours after last dosing.
Blood glucose levels were measured from blood collected through tail puncture using a glucometer at 1000 hour. The mice were anaesthetized with sodium pentobarbital (1 ml/kg, intraperitoneal [i.p.] injection, SleepAway, Fort Dodge, Iowa) and blood was drawn via cardiac puncture using 1 mL syringe and collected into heparinized tubes. White adipose tissues (WAT) (retroperitoneal and inguinal fat pads), brown adipose tissure (BAT) and skeletal muscles (gastrocnemius and soleus muscle) and stomach contents were dissected and weighed. Plasma samples were obtained by centrifuging whole blood at 2000˜3000 g for 10˜20 minutes at 4° C. and stored at −20° C. for further measurement of insulin, HDL, LDL, total cholesterol and triglyceride.
Plasma insulin concentrations were measured by in both studies using the appropriate rat/mouse insulin enzyme-linked immunosorbent assay (ELISA) kit (EZRMI-13K, LINCO Research, St. Charles, Mo.). Blood samples were diluted 1:4 in charcoal stripped mouse serum that was included in the ELISA kit. The rest of the procedure followed the manufacturers instruction. The total fluorescence was detected using an Orion 1 Microplate Luminometer (Berthold Detection Systems, Pforzheim, Germany).
According to manufacturers protocol, cholesterol measurement was an enzymatic method utilizing cholesterol esterase and cholesterol oxidase conversion followed by a Trinder endpoint; Elimination/catalase method was used for HDL measurement; an enzymatic method with a Trinder endpoint was used for triglyceride measurement.
Data from both parts of the Study (single dose and dose response) was analyzed using the standard two-tailed Student's t-test and are expressed below as means and standard errors.

[2] abbreviates: single dose part, rosiglitazone 20 mg/kg.
Setting [3] is: single dose part, rosiglitazone 20 mg/kg positive control.
Where [4] appears, read: single dose part, rosiglitazone 20 mg/kg, plasma.

One may read the melting point as the temperature, or range, at which the solid turns liquid.

For the compound `NS(=O)(=O)NCC1CCc2ccccc2O1` (centres unmarked) [Compound #10, Chroman-2-ylmethylsulfamide], the melting point is 100 to 101 °C.

In the case of `CN(CCOc1ccc(CC2SC(=O)NC2=O)cc1)c1ccccn1` (centres unmarked) [Rosiglitazone, rosiglitazone, reference compound], the “total cholesterol concentrations elevated relative to vehicle” value in series [1] (rosiglitazone, dose not given) is given as 35.1%. For the same compound, in series [1] (setting [2]), the “Brown Adipose Tissue” value is given as 0.32 ± 0.02 g, the “Final weight Body weight” value turned out to be 43 ± 1.0 g, the “Final weight Stomach contents” value turned out to be 0.32 ± 0.04 g and the Inguinal fat turned out to be 2.44 ± 0.11 g. Also, in series [1] (setting [2]), the Muscle is 0.154 ± 0.00 g, the Retroperitoneal fat is reported as 1.45 ± 0.10 g, the “Total chow consumption Day 1-3” value turned out to be 21 ± 0.8 g and the “Total chow consumption Day 4-6” value amounted to 22 ± 0.9 g. The “Total chow consumption Day 7-9” value in series [1] (setting [2]) was 19 ± 0.7 g. In series [1] (setting [3]), the Glucose is 170 ± 23 mg/dL and the Insulin turned out to be 11.2 ± 2.3 ng/mL. In series [1] (setting [4]), the Cholesterol was 123 ± 8 mg/dL, the HDL amounted to 62.5 ± 3.2 mg/dL, the LDL came to 3.3 ± 0.3 mg/dL and the “Ratio (Triglyceride to HDL)” value came out at 1.6 ± 0.3. Also, in series [1] (setting [4]), the Triglyceride was found to be 105 ± 23 mg/dL. Besides, the “Ratio (fat/muscle)” value in series [1] (single dose part, rosiglitazone 20 mg/kg, total inguinal and retroperitoneal fat/muscle weight) is on record as 25.4 ± 1.6. Besides, the weight gain in series [1] (single dose part, rosiglitazone, p<0.05 vs vehicle 0.3±0.2 g) is 3.1 ± 0.4 g.
